In paper PMC11960442, “In vitro activities of lipopeptides against fluconazole-resistant Candida auris” (Microbiology Spectrum, 2025):
In brackets after ≈: the same amount, converted by molar mass. Like-named read-outs stand apart in the source and are kept apart here. Non-standard residues stand in square brackets, D forms with d. Residues, ends and D or L forms follow the SMILES beside them. *: point of attachment. Myristoyl = CCCCCCCCCCCCCC(=O)*; Nle = CCCC[C@H](N)C(=O)O

Key:
[1] = tested on: fluconazole-resistant C. auris isolates; assay: microbe, parasite or virus in culture; settings: Candidozyma auris, EUCAST broth microdilution, RPMI 1640 with 2% glucose
C. auris = assay: Stability of compounds: MIC after pre-incubation of the peptides; type: cell-based, Candida auris; settings: peptides previously incubated for 24 and 48 hours at 37°C; no changes in MIC values
Procedure: Determination of MICs. […] The media used for this assay was RPMI 1640 with 2% of glucose and the concentration of antifungal and peptides tested ranged from 128 to 0.25 mg/l.
Stability of compounds The peptides were incubated at 37°C for 24 and 48 hours. They were then used to perform MIC determination as previously described.

[2] = tested on: C. auris isolates 728157, CAB-1, CAB-2; assay: Growth curves (OD450 nm every hour for 24 h); type: cell-based, Candida auris; settings: for growth: growth curve 24 h
Procedure: Growth Curves. The action of the peptides was assessed by growth curve measuring OD450 nm every hour for 24 h using peptides at different concentrations (0.5X, 1X, 2X MIC). […] Untreated isolates were used as control. All experiments were replicated at least three times.

[3] = tested on: fluconazole-resistant C. auris isolates; settings: for MIC: EUCAST broth microdilution, RPMI 1640 with 2% glucose; for MIC values: the six C. auris isolates
[4] = tested on: C. auris isolates 728157, CAB-1, CAB-2; assay: Time-kill experiments (CFU counts), peptides combined with fluconazole; type: cell-based, Candida auris; settings: for interaction with fluconazole in time-kill: fluconazole 128 mg/L with 0.5X and 1X MIC of peptide, interpreted by White et al.; for log difference compared to single administration, time-kill: C. auris CAB-1
[5] = isolate 728157 (clade I, ERG11 K143R)
[6] = isolate CAB-1 (clade I, ERG11 Y132F)
[7] = isolate CAB-2 (clade I, ERG11 Y132F)
[8] = isolate CAB-3 (clade I, ERG11 Y132F)
[9] = isolate CAB-4 (clade I, ERG11 Y132F)
[10] = isolate CAB-5 (clade I, ERG11 Y132F)
[11] = C. auris 728157, all the concentrations (0.5X, 1X, 2X MIC)
[12] = C. auris 728157, peptide at 0.5X MIC
[13] = C. auris 728157, peptide at 1X and 2X MIC
[14] = C. auris CAB-1, peptide at 1X and 2X MIC
[15] = C. auris CAB-2, peptide at 1X MIC
[16] = C. auris CAB-2, peptide at 2X MIC
[17] = fluconazole combined with 0.5X MIC of peptide, after 12 hours
[18] = C. auris CAB-2, fluconazole combined with 0.5X MIC of peptide, after 12 hours

Compound	MIC [1, 5]	MIC [1, 6]	MIC [1, 10]	MIC after pre-incubation of the peptide (stability) (C. auris)	hours of treatment after which P <0.05 compared to control (growth curve) [2, 11]	delay of the start of growth compared to the control [2, 12]	growth [2, 13]	growth [2, 14]	delay of the start of growth compared to the control [2, 15]	growth [2, 16]	MIC [3, 5]	MIC [3, 6]	MIC [3, 7]	MIC [3, 8]	MIC [3, 9]	MIC [3, 10]	MIC values [3]	MIC values ([3]; 8 mg/L expressed in µM)	interaction with fluconazole in time-kill ([4]; C. auris 728157)	log difference compared to single administration, time-kill [4, 17]	further results
C[C@@H]1[C@H](O)[C@@H](C)/C=C/C=C/C=C/C=C/C=C/C=C/C=C/[C@H](O[C@@H]2O[C@H](C)[C@@H](O)[C@H](N)[C@@H]2O)C[C@@H]2O[C@](O)(C[C@@H](O)C[C@@H](O)[C@H](O)CC[C@@H](O)C[C@@H](O)CC(=O)O[C@H]1C)C[C@H](O)[C@H]2C(=O)O [AMB, amphotericin]	0.5 µg/mL (≈ 0.541 µM)	1 µg/mL (≈ 1.08 µM)	1 µg/mL (≈ 1.08 µM)	–	–	–	–	–	–	–	–	–	–	–	–	–	–	–	–	–	MIC [1, 7]: 1 µg/mL (≈ 1.08 µM); MIC [1, 8]: 1 µg/mL (≈ 1.08 µM); MIC [1, 9]: 1 µg/mL (≈ 1.08 µM)
OC(Cn1cncn1)(Cn1cncn1)c1ccc(F)cc1F [FLU, fluconazole]	> 128 µg/mL	64 µg/mL (≈ 209 µM)	64 µg/mL (≈ 209 µM)	–	–	–	–	–	–	–	–	–	–	–	–	–	–	–	–	–	–
CCCCCCCCCCCCCC(=O)N[C@@H](CCCC)C(=O)N[C@@H](CCCNC(=N)N)C(=O)N[C@@H](CCCNC(=N)N)C(N)=O [NeI, C14-NleRR-NH2] (Myristoyl-[Nle]-Arg-Arg-NH2)	–	–	–	8 µg/mL	8 h	16 h	completely inhibited	completely inhibited	14 h	completely inhibited	8 µg/mL (≈ 12.3 µM)	8 µg/mL (≈ 12.3 µM)	8 µg/mL (≈ 12.3 µM)	8 µg/mL (≈ 12.3 µM)	8 µg/mL (≈ 12.3 µM)	8 µg/mL (≈ 12.3 µM)	8 µg/mL	9 µM	synergistic effect	2.19 log	hours of treatment after which P <0.05 compared to control (growth curve) ([2]; C. auris CAB-1, 1X and 2X MIC concentrations): 8 h; hours of treatment after which P <0.05 compared to control (growth curve) ([2]; C. auris CAB-2, 1X and 2X MIC concentrations): 7 h; log difference, time-kill ([4]; C. auris 728157, fluconazole (128 mg/L) in combination with 0.5X and 1X MIC of peptide, at 32 hours): 3.10 log; log difference, time-kill ([4]; C. auris 728157, fluconazole (128 mg/L) in combination with 0.5X and 1X MIC of peptide, at 48 hours): 3.53 log; log difference, time-kill [4, 18]: 1.19 log
CCCCCCCCCCCCCC(=O)N[C@@H](Cc1c[nH]c2ccccc12)C(=O)N[C@@H](CCCNC(=N)N)C(=O)N[C@@H](CCCNC(=N)N)C(N)=O [WR, C14-WRR-NH2] (Myristoyl-Trp-Arg-Arg-NH2)	–	–	–	8 µg/mL	9 h	22 h	completely inhibited	completely inhibited	16 h	completely inhibited	8 µg/mL (≈ 11 µM)	8 µg/mL (≈ 11 µM)	8 µg/mL (≈ 11 µM)	8 µg/mL (≈ 11 µM)	8 µg/mL (≈ 11 µM)	8 µg/mL (≈ 11 µM)	8 µg/mL	8.4 µM	additive effect	2.96 log	hours of treatment after which P <0.05 compared to control (growth curve) ([2]; C. auris CAB-1, all the concentrations (0.5X, 1X, 2X MIC)): 9 h; hours of treatment after which P <0.05 compared to control (growth curve) ([2]; C. auris CAB-2, all the concentrations (0.5X, 1X, 2X MIC)): 8 h; growth after 24 hours compared to the control ([2]; peptide at 0.5X MIC, ANOVA, P <0.05): statistically significant reduction of growth; log difference, time-kill [4, 18]: 1.69 log
anidulafungin [reference compound]	–	–	–	–	–	–	–	–	–	–	0.25 µg/mL	0.5 µg/mL	0.25 µg/mL	0.25 µg/mL	0.25 µg/mL	0.25 µg/mL	–	–	–	–	–
